According to patent US4312867A, “Antibacterial compounds, processes for their preparation and compositions containing them” (Beecham Group Limited, priority 1979, dated 1982):
Converted amounts (≈) assume the structure as drawn. Like-named read-outs stand apart in the source and are kept apart here.

What was measured:
Type in all cases: cell-based
[1] = system: M pneumoniae 427a; assay: in vitro anti-mycoplasmal MIC, Friis' broth (Table 3)
Protocol: (§1) The minimum inhibitory concentrations (MIC) of the examples were determined by either:
(§2) (i) in Friis' broth using microtitre plates, by modification of the metabolic-inhibition test (Taylor-Robinson, Post Frad, Med. J., 1967, 43, 100).

[2] = system: M dispar NCTC 10125; assay: as above
Protocol: as §1, §2

[3] = system: M suipneumoniae J2206/183b; assay: as above
Protocol: as §1, §2

[4] = system: M pneumoniae ATCC 15492; assay: as above
Protocol: as §1, §2

[5] = system: M pulmonis JB; assay: as above
Protocol: as §1, §2

[6] = system: M suipneumoniae Str 11; assay: as above
Protocol: as §1, §2

[7] = system: M dispar H225; assay: as above
Protocol: as §1, §2

[8] = system: M fermentans MWKL4; assay: as above
Protocol: as §1, §2

[9] = system: M hyosynoviae ATCC 25591; assay: in vitro anti-mycoplasmal MIC, Friis' agar (Table 3)
Protocol: as §1
(§3) or (ii) by serial dilution in Friis' agar medium.

[10] = system: M alkalescens NCTC 10135; assay: as above
Protocol: as §1, §3

[11] = system: M pneumoniae 427a; assay: as above
Protocol: as §1, §3

[12] = system: M synoviae ATCC 25204; assay: as above
Protocol: as §1, §3

[13] = system: M pneumoniae ATCC 15492; assay: as above
Protocol: as §1, §3

[14] = system: M pulmonis JB; assay: as above
Protocol: as §1, §3

[15] = system: M hyorhinis ATCC 23234; assay: as above
Protocol: as §1, §3

[16] = system: M bovigenitalium ATCC 14173; assay: as above
Protocol: as §1, §3

[17] = system: M arthritidis ATCC 14124; assay: as above
Protocol: as §1, §3

[18] = system: M gallisepticum S6; assay: as above
Protocol: as §1, §3

[19] = system: M fermentans MWKL4; assay: as above
Protocol: as §1, §3

[20] = system: M. suipneumoniae J2206/183b; assay: anti-mycoplasmal MIC, Friis broth solidified with agarose (Table 4); conditions: Mesomycoplasma hyopneumoniae, 144 h, 6 days at 37° C.
[21] = system: 12 strains of M. suipneumoniae; assay: anti-mycoplasmal MIC, Friis broth solidified with agarose (Table 4), mean over strains; conditions: Mesomycoplasma hyopneumoniae, 144 h; mean of 12 strains; 6 days at 37° C.; read-out: Mean MIC for above 12 strains of M. suipneumoniae
[22] = system: M. bovigenitalium ATCC 14173; assay: anti-mycoplasmal MIC, Friis broth solidified with agarose (Table 4); conditions: 144 h
[23] = system: M. hyosynoviae ATCC 25591; assay: as above; conditions: 144 h
[24] = system: M. hyorhinis ATCC 25021; assay: as above; conditions: Mesomycoplasma hyorhinis, ATCC25021, 144 h, 6 days at 37° C.
[25] = system: B. subtilis ATCC 6633; assay: MIC veterinary bacteria (Table 2), serial dilution in agar; conditions: diagnostic sensitivity test agar
[26] = system: M. suipneumoniae MS16; assay: anti-mycoplasmal MIC, Friis broth solidified with agarose (Table 4); conditions: Mesomycoplasma hyopneumoniae
[27] = system: M. suipneumoniae JF435; assay: as above; conditions: Mesomycoplasma hyopneumoniae
[28] = system: M. suipneumoniae TAM 6N; assay: as above; conditions: Mesomycoplasma hyopneumoniae, TAM6N, 144 h, 6 days at 37° C.
[29] = system: M. suipneumoniae Str. 11; assay: as above; conditions: Mesomycoplasma hyopneumoniae
[30] = system: M. hyorhinis ATCC 23234; assay: as above; conditions: Mesomycoplasma hyorhinis, ATCC23234, 144 h, 6 days at 37° C.
[31] = system: M. suipneumoniae NCTC 10110; assay: as above; conditions: Mesomycoplasma hyopneumoniae, NCTC10110, 144 h
[32] = system: M. bovis NCTC 10131; assay: microbe, parasite or virus in culture; conditions: NCTC10131, 144 h
[33] = system: M. pneumoniae ATCC 15492; assay: anti-mycoplasmal MIC, Friis broth solidified with agarose (Table 4); conditions: Mycoplasmoides pneumoniae, ATCC15492, 144 h, 6 days at 37° C.
[34] = system: M. suipneumoniae PW/C/210; assay: as above; conditions: Mesomycoplasma hyopneumoniae, 144 h, 6 days at 37° C.
[35] = system: M. gallisepticum S6; assay: as above; conditions: Mycoplasmoides gallisepticum
[36] = system: M. suipneumoniae HK(2); assay: as above; conditions: Mesomycoplasma hyopneumoniae, 144 h, 6 days at 37° C.

Compound	MIC [1] [mg/L]	MIC [2] [mg/L]	MIC [3] [mg/L]	MIC [4] [mg/L]	MIC [5] [mg/L]	MIC [6] [mg/L]	MIC [7] [mg/L]	MIC [8] [mg/L]	MIC [9] [mg/L]	MIC [10] [mg/L]	MIC [11] [mg/L]	MIC [12] [mg/L]	MIC [13] [mg/L]	MIC [14] [mg/L]	MIC [15] [mg/L]	MIC [16] [mg/L]	MIC [17] [mg/L]	MIC [18] [mg/L]	MIC [19] [mg/L]	MIC [20] [mg/L]	further results
C/C(=C\C(=O)OCCCCCCS(N)(=O)=O)CC1OCC(CC2OC2C(C)C(C)O)C(O)C1O (stereo not drawn) [Example 2, 6-Sulphamoylhexyl monate A]	0.312 (≈ 0.615 µM)	< 0.02	0.156 (≈ 0.307 µM)	0.312 (≈ 0.615 µM)	< 0.02	≤ 0.02	< 0.02	< 0.02	0.039 (≈ 0.0768 µM)	< 0.02	0.312 (≈ 0.615 µM)	< 0.02	0.625 (≈ 1.23 µM)	≤ 0.02	0.156 (≈ 0.307 µM)	≤ 0.02	5 (≈ 9.85 µM)	2.5 (≈ 4.92 µM)	0.039 (≈ 0.0768 µM)	–	–
C/C(=C\C(=O)OCCCCCCCCS(N)(=O)=O)CC1OCC(CC2OC2C(C)C(C)O)C(O)C1O (stereo not drawn) [Example 3, 8-Sulphamoyloctyl monate A]	0.312 (≈ 0.582 µM)	0.02 (≈ 0.0373 µM)	0.156 (≈ 0.291 µM)	0.312 (≈ 0.582 µM)	0.02 (≈ 0.0373 µM)	0.02 (≈ 0.0373 µM)	0.02 (≈ 0.0373 µM)	0.02 (≈ 0.0373 µM)	0.078 (≈ 0.146 µM)	< 0.02	0.312 (≈ 0.582 µM)	< 0.02	0.625 (≈ 1.17 µM)	0.039 (≈ 0.0728 µM)	0.312 (≈ 0.582 µM)	< 0.039	5 (≈ 9.33 µM)	2.5 (≈ 4.67 µM)	0.039 (≈ 0.0728 µM)	–	–
C/C(=C\C(=O)OCCCS(=O)(=O)N(C)C)CC1OCC(CC2OC2C(C)C(C)O)C(O)C1O (stereo not drawn) [Example 4, 3-N,N-Dimethylsulphamoylpropyl monate A]	–	–	–	–	–	–	–	–	–	–	–	–	–	–	–	–	–	–	–	1000 (≈ 2030 µM)	MIC [21]: 750 mg/L (≈ 1520 µM); MIC [22]: 50 mg/L (≈ 101 µM); MIC ([23]; M. hyosynoviae ATCC 25591, 6 days at 37° C., read-out: MIC): 250 mg/L (≈ 506 µM); MIC [24]: 250 mg/L (≈ 506 µM); MIC [25]: No Growth; MIC ([26]; 144 h, M. suipneumoniae MS16, 6 days at 37° C., read-out: MIC): 500 mg/L (≈ 1010 µM); MIC ([27]; JF435, 144 h): 1000 mg/L (≈ 2030 µM); MIC [28]: 1000 mg/L (≈ 2030 µM); MIC ([29]; 144 h, M. suipneumoniae Str. 11, 6 days at 37° C., read-out: MIC): 500 mg/L (≈ 1010 µM); MIC [30]: 250 mg/L (≈ 506 µM); MIC [31]: 1000 mg/L (≈ 2030 µM); MIC [32]: ≤ 10 mg/L; MIC [33]: 5000 mg/L (≈ 10100 µM); MIC [34]: 500 mg/L (≈ 1010 µM); MIC ([35]; 144 h, M. gallisepticum S6, 6 days at 37° C., read-out: MIC): > 10000 mg/L; MIC [36]: 1000 mg/L (≈ 2030 µM)
C/C(=C\C(=O)OC(C)CCCCCS(N)(=O)=O)CC1OCC(CC2OC2C(C)C(C)O)C(O)C1O (stereo not drawn) [Example 5, 7-Sulphamoylhept-2-yl monate A]	–	–	–	–	–	–	–	–	–	–	–	–	–	–	–	–	–	–	–	500 (≈ 958 µM)	MIC [21]: 480 mg/L (≈ 920 µM); MIC ([22]; M. bovigenitalium ATCC 14173, 6 days at 37° C., read-out: MIC): 50 mg/L (≈ 95.8 µM); MIC [23]: 100 mg/L (≈ 192 µM); MIC [24]: 250 mg/L (≈ 479 µM); MIC [25]: No Growth; MIC ([26]; MS16, 144 h): 250 mg/L (≈ 479 µM); MIC ([27]; 144 h, M. suipneumoniae JF435, 6 days at 37° C., read-out: MIC): 500 mg/L (≈ 958 µM); MIC [28]: 500 mg/L (≈ 958 µM); MIC ([29]; STR.11, 144 h): 250 mg/L (≈ 479 µM); MIC [30]: 250 mg/L (≈ 479 µM); MIC ([31]; M. suipneumoniae NCTC 10110, 6 days at 37° C., read-out: MIC): 500 mg/L (≈ 958 µM); MIC [32]: ≤ 10 mg/L; MIC [33]: 1000 mg/L (≈ 1920 µM); MIC [34]: 250 mg/L (≈ 479 µM); MIC ([35]; S6, 144 h): 2500 mg/L (≈ 4790 µM); MIC [36]: 1000 mg/L (≈ 1920 µM)
